Calls of active or inactive are those of the source. No cut-off for these calls is given here.
Assays:
Histamine H2 receptor = Histamine H2 receptor (Homo sapiens, UniProt P25021); experiment: GPCRScan assay: inhibition of H2; set-up: radioligand conc. used [nm] 0.02 – 0.05, parental cells Stable HEK
[1] = target: 5-hydroxytryptamine receptor 2B (Homo sapiens) (UniProt P41595); conditions: Compound concentration 10.0 uM
[2] = target: D(2) dopamine receptor (Homo sapiens) (UniProt P14416); conditions: Compound concentration 10.0 uM
[3] = target: Histamine H3 receptor (Homo sapiens) (UniProt Q9Y5N1); conditions: Compound concentration 10.0 uM
[4] = FLIPR Ca2+ assay (dog TRPA1); set-up: species or system Canis lupus familiaris
[5] = FLIPR Ca2+ assay (monkey TRPA1)
[6] = target: 5-hydroxytryptamine receptor 5A (Homo sapiens) (UniProt P47898); conditions: Compound concentration 10.0 uM
[7] = target: D(1B) dopamine receptor (Homo sapiens) (UniProt P21918); conditions: Compound concentration 10.0 uM
[8] = target: T1, GABA-A receptor; anion channel (Rattus norvegicus) (UniProt O09028+P15431+P18506+P18508+P19969+P20236+P23574+P23576+P28471+P28473+P30191+P62813+P63079+P63138+Q91ZM7+Q9ES14); conditions: Compound concentration 10.0 uM
[9] = target: Adenosine receptor A1 (Homo sapiens) (UniProt P30542); conditions: Compound concentration 10.0 uM
[10] = target: T2, Alpha-1A adrenergic receptor (Homo sapiens) (UniProt P35348); conditions: Rattus norvegicus; Compound concentration 10.0 uM
T2 sequence (whole entry): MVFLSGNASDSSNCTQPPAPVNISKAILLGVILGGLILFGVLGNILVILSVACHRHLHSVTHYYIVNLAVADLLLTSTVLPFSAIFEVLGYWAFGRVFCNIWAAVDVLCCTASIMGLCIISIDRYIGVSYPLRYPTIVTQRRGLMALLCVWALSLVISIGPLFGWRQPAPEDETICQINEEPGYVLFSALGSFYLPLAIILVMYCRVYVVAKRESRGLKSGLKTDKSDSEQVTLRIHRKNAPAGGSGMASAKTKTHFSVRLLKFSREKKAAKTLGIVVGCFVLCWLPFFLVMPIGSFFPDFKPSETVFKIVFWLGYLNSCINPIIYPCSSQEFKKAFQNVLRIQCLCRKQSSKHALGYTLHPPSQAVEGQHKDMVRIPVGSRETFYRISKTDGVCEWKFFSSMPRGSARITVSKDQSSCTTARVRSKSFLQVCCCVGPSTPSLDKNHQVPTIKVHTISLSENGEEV

[11] = target: Beta-1 adrenergic receptor (Homo sapiens) (UniProt P08588); conditions: Compound concentration 10.0 uM
[12] = target: D(2) dopamine receptor (Homo sapiens) (UniProt P14416); conditions: Compound concentration 10.0 uM; remark: listed apart in the source
[13] = target: Endothelin-1 receptor (Homo sapiens) (UniProt P25101); conditions: Compound concentration 10.0 uM
[14] = target: Estrogen receptor (Homo sapiens) (UniProt P03372); conditions: Compound concentration 10.0 uM
[15] = target: T3, Muscarinic acetylcholine receptor M2 (Homo sapiens) (UniProt P08172); conditions: Compound concentration 10.0 uM
T3 sequence (whole entry): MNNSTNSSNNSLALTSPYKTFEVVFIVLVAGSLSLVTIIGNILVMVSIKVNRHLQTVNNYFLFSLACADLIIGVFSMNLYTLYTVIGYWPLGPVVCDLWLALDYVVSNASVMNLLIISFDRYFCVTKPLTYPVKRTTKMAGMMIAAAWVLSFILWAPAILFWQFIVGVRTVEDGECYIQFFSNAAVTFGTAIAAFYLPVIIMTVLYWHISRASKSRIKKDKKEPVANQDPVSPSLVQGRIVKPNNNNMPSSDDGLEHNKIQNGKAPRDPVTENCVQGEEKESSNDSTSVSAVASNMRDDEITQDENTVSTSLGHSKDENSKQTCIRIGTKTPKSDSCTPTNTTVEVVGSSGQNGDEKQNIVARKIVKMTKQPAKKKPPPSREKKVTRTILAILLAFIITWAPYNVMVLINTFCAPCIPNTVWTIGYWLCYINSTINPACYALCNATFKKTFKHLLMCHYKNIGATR

[16] = target: Muscarinic acetylcholine receptor M3 (Homo sapiens) (UniProt P20309); conditions: Compound concentration 10.0 uM
[17] = target: T4, 5-hydroxytryptamine receptor 1A (Homo sapiens) (UniProt P08908); conditions: Compound concentration 10.0 uM
T4 sequence (whole entry): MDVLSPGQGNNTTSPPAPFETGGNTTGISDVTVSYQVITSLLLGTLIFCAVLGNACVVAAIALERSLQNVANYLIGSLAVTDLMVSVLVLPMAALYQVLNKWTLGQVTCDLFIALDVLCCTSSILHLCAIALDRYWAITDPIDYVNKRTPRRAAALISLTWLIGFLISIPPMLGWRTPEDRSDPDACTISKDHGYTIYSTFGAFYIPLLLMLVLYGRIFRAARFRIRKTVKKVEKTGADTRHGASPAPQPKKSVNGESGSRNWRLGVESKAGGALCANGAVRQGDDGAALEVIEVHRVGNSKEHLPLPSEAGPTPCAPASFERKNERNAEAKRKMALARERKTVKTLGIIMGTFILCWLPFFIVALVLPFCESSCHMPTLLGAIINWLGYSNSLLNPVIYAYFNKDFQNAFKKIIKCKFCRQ

[18] = target: Sodium-dependent dopamine transporter (Homo sapiens, UniProt Q01959); conditions: Compound concentration 10.0 uM
[19] = target: Alpha-2B adrenergic receptor (Homo sapiens) (UniProt P18089); conditions: Compound concentration 10.0 uM
[20] = target: Type-2 angiotensin II receptor (Homo sapiens) (UniProt P50052); conditions: Compound concentration 10.0 uM
[21] = target: T1, GABA-A receptor; anion channel (Rattus norvegicus); conditions: Compound concentration 10.0 uM; remark: listed apart in the source
[22] = target: Glutamate receptor 2 (Homo sapiens) (UniProt P42262); conditions: Rattus norvegicus; Compound concentration 10.0 uM
[23] = target: Vasopressin V1a receptor (Homo sapiens) (UniProt P37288); conditions: Compound concentration 10.0 uM
[24] = target: 5-hydroxytryptamine receptor 2A (Homo sapiens, UniProt P28223); conditions: Compound concentration 10.0 uM
[25] = target: Growth hormone secretagogue receptor type 1 (Homo sapiens) (UniProt Q92847); conditions: Compound concentration 10.0 uM
Chain of Growth hormone secretagogue receptor type 1 (Homo sapiens) (Q92847 whole entry): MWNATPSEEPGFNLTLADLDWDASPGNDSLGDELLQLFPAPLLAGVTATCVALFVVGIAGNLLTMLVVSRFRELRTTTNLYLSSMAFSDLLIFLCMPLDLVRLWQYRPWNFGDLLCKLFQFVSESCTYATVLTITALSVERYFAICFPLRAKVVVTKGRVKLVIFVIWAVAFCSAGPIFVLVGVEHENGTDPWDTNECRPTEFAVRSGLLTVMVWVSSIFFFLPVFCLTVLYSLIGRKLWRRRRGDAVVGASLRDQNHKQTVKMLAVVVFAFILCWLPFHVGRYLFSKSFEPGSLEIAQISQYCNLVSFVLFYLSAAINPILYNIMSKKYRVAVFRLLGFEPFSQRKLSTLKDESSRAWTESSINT

Chain of D(2) dopamine receptor (Homo sapiens) (P14416 whole entry): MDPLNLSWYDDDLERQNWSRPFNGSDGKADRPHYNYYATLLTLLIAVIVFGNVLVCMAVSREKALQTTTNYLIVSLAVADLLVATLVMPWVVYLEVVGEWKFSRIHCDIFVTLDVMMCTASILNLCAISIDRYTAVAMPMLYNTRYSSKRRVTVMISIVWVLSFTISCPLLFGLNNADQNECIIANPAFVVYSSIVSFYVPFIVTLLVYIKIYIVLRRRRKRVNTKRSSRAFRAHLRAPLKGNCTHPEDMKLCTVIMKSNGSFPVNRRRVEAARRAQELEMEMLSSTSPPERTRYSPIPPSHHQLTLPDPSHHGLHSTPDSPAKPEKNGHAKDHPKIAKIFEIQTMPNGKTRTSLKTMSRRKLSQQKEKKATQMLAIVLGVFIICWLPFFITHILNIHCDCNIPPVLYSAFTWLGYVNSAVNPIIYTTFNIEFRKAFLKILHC
Chain of 5-hydroxytryptamine receptor 2A (P28223 whole entry): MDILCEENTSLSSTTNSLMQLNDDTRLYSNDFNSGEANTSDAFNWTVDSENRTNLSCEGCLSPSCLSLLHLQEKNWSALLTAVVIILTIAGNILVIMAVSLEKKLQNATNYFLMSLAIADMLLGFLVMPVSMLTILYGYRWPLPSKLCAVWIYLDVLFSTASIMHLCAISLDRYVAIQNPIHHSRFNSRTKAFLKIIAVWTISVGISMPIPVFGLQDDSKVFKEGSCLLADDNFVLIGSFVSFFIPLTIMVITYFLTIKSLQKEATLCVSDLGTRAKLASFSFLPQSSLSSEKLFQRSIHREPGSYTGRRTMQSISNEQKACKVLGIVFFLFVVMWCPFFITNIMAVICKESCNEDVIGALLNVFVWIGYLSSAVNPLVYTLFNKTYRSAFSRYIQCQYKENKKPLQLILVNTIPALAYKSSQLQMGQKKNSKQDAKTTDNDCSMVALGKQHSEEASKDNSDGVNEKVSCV
Chain of 5-hydroxytryptamine receptor 5A (Homo sapiens) (P47898 whole entry): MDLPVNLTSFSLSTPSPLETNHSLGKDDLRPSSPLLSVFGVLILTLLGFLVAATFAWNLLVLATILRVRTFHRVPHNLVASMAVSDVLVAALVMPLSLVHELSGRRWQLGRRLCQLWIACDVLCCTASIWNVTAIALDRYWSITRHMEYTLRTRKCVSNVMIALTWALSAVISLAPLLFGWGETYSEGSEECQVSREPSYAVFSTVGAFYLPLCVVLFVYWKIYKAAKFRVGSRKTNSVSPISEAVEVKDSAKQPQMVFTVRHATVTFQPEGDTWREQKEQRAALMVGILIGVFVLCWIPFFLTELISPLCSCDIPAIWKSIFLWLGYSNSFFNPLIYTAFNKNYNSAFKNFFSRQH
Chain of Vasopressin V1a receptor (Homo sapiens) (P37288 whole entry, looked up): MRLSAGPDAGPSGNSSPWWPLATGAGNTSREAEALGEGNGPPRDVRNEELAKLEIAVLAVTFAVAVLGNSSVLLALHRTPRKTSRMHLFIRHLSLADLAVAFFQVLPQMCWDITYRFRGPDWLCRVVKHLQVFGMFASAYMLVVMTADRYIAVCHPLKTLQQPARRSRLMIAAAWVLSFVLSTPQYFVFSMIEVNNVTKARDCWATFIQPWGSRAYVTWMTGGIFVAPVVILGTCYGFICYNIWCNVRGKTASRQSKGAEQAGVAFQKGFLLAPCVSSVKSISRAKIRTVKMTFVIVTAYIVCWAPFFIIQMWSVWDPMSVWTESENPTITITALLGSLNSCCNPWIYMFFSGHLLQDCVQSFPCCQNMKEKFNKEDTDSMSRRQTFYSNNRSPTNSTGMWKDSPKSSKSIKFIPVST
Chain of 5-hydroxytryptamine receptor 2B (Homo sapiens) (P41595 whole entry): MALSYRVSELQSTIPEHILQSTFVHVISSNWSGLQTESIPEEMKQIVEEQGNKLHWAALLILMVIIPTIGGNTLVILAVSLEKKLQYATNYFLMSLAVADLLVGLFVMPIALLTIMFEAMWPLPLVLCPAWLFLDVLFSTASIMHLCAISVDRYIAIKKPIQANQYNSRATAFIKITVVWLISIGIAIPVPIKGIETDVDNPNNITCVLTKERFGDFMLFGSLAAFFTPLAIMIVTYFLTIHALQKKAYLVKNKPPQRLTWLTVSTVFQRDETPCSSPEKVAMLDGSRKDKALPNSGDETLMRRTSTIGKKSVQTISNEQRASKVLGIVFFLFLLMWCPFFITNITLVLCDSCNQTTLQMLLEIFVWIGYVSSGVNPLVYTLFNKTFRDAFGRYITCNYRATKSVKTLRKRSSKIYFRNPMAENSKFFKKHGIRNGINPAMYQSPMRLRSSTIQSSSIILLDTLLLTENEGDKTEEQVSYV
Chain of Endothelin-1 receptor (Homo sapiens) (P25101 whole entry): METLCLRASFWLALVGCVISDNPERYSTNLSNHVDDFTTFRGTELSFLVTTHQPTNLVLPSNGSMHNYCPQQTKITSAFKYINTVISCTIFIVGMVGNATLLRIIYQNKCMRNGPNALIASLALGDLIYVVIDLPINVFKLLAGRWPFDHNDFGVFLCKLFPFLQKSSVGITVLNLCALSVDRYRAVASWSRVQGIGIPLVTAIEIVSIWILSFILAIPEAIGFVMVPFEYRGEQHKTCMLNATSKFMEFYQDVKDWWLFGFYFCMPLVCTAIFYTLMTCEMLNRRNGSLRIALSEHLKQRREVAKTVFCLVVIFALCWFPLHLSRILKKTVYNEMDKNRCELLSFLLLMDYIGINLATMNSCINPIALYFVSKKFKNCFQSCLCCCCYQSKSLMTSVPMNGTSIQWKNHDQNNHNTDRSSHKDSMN
Chain of Histamine H3 receptor (Homo sapiens) (Q9Y5N1 whole entry): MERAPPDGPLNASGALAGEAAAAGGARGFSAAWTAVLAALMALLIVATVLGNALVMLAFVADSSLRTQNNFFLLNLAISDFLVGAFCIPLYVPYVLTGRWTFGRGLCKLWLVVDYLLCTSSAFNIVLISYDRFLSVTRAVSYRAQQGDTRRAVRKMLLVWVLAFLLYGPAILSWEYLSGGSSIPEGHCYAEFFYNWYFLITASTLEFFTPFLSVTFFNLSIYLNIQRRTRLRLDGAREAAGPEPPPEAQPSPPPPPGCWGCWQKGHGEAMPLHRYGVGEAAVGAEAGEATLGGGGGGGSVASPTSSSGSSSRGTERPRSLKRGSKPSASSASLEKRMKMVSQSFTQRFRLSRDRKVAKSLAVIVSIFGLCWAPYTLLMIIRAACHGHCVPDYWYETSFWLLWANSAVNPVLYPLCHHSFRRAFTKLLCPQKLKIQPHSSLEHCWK
Chain of Type-2 angiotensin II receptor (Homo sapiens) (P50052 whole entry): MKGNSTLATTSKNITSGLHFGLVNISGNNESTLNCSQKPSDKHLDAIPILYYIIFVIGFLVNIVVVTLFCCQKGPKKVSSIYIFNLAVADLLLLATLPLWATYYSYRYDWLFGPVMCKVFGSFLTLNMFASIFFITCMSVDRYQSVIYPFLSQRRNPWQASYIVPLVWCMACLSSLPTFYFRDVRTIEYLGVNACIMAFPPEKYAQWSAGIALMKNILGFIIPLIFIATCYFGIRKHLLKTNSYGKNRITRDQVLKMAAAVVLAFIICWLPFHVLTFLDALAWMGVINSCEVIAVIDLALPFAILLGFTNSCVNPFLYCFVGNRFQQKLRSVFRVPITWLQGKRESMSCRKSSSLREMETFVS
Chain of Alpha-2B adrenergic receptor (Homo sapiens) (P18089 whole entry): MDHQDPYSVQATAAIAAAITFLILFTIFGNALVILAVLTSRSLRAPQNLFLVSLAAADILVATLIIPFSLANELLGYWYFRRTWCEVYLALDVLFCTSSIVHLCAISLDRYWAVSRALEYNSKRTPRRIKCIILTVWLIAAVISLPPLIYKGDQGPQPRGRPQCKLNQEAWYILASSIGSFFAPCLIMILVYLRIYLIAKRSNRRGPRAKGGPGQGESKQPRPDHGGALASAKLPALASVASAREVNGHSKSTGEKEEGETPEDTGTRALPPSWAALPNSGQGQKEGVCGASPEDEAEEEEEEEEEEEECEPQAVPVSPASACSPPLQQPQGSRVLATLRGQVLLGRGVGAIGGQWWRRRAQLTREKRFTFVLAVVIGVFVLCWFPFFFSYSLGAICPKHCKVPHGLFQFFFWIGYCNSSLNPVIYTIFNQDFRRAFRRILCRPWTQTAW
Chain of Adenosine receptor A1 (Homo sapiens) (P30542 whole entry): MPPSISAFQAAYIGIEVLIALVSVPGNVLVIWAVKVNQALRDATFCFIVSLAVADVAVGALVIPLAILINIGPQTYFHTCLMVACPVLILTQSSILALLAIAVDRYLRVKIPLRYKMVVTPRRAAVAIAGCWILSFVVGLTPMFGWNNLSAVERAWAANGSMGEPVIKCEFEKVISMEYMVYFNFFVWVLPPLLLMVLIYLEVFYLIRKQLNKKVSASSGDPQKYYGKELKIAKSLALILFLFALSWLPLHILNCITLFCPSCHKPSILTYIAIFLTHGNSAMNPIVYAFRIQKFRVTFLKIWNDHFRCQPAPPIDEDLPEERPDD
Chain of Histamine H2 receptor (P25021 whole entry): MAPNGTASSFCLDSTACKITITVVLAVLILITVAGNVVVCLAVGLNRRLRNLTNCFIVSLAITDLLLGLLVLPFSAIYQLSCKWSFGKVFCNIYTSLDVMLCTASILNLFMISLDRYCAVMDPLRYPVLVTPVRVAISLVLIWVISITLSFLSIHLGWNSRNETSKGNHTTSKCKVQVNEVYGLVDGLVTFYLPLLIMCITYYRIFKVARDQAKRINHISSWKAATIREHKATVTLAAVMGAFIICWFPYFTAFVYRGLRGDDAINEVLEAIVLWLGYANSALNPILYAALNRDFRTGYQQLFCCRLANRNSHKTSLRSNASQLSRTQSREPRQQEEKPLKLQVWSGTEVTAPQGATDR

Work on `COc1cc(N[C@@H]2CCCC[C@]2(O)C(F)(F)F)ccc1F` [BAY-9897] yielded a Ki (Histamine H2 receptor) of 9.78 µM, an inhibition [1] of 18% and an inhibition [2] of -4.34%. The inhibition [3] was -2.34%.

For `O[C@]1(C(F)(F)F)CCCC[C@H]1Nc1ccc(F)cc1` [BAY-390], the IC50 [4] was 0.081 µM (active), the IC50 [5] was 0.019 µM (active) and the inhibition [6] was -7.74%. For the same compound, the inhibition [7] was 30.2%, the inhibition [8] was 19.7% and the inhibition [9] was 18%. It also gave an inhibition [10] of 18%, an inhibition [11] of 3% and an inhibition [12] of 13%. It also gave an inhibition [13] of 7%, an inhibition [14] of 75% and an inhibition [15] of -2%. The inhibition [16] was 21%, the inhibition [17] was 10% and the inhibition [18] was 84%. For the same compound, the inhibition [19] was 2%, the inhibition [20] was 1% and the inhibition [21] was -8%. The inhibition [22] was 8%, the inhibition [23] was -7% and the inhibition [24] was -2%. It also gave an inhibition [25] of 3%.

Source: ChEMBL document CHEMBL4507328, “Data for DCP probe BAY-390” (2021)
